Assay results as given in ChEMBL document CHEMBL1156829 (Proc Natl Acad Sci U S A, 2008).

How the values were obtained:
[1] = system: Plasmodium falciparum; assay: NOVARTIS: Inhibition of Plasmodium falciparum 3D7 (drug-susceptible) proliferation in erythrocyte-based infection assay; assay type: functional, organism-based; conditions: Plasmodium falciparum, 3D7
[2] = NOVARTIS: Cytotoxicity against human hepatocellular carcinoma cell line (Huh7); assay type: toxicity, cell-based, Huh-7; conditions: Huh7 cells (hepatocellular carcinoma cell line)
[3] = system: Plasmodium falciparum; assay: NOVARTIS: Inhibition of Plasmodium falciparum W2 (drug-resistant) proliferation in erythrocyte-based infection assay; assay type: functional, organism-based; conditions: Plasmodium falciparum, W2; read-out: EC50

| Compound | EC50 [1] [µM] | CC50 [2] [µM] | EC50 [3] [µM] |
| --- | --- | --- | --- |
| c1ccc(COCC[N+]2(Cc3ccccc3)CCCCC2)cc1 | > 1.16 | > 10 | > 1.25 |
| CCCn1c(SCC(=O)N2c3ccccc3CC2C)nc2c1c(=O)n(C)c(=O)n2C (configuration not stated) | > 1.25 | > 10 | < 0.0271 |
| CCCCN(C)C(=O)c1sc2ncn(CC(=O)N(CC)CC)c(=O)c2c1C | > 1.25 | > 10 | > 1.01 |
| CC(C)CNC(=O)c1cnc(NCCCN(C)C)nc1NCC1CCCCC1 | 0.334 | > 10 | 0.815 |
| COc1ccc(C2CC(=O)C3=C(C2)NC(C)=C(C(=O)OC2CCCC2)C3c2ccc(Cl)cc2Cl)cc1 (configuration not stated) | 0.126 | > 100 | 0.0347 |
| O=C(Nc1ccccc1[N+](=O)[O-])C1CC1(c1ccccc1)c1ccccc1 (configuration not stated) | > 12.5 | > 100 | 0.647 |
| N=c1c2c(n(Cc3ccc(Cl)c(Cl)c3)c3c1CCC3)CCCC2 | 0.503 | > 10 | 0.506 |
| CCCCCCCCC(=O)N1CCN(C(CC)c2nc3ccccc3c(=O)n2C)CC1 (configuration not stated) | 0.492 | > 10 | 0.5 |
| COc1ccc(-c2csc3nc(COc4cccc(C)c4)nn23)c(O)c1 | > 4.62 | > 100 | 7.59 |
| O=C(/C=C/c1ccccn1)NCC1Cc2cc(-c3cnccn3)ccc2O1 (configuration not stated) | > 1.25 | > 10 | > 0.356 |
| Oc1c(CN2CCN(Cc3ccc4cccnc4c3O)CC2)ccc2cccnc12 | 0.561 | > 89.3 | 0.318 |
| CCCCN(CCCC)[P+](N(CCCC)CCCC)(N(CCCC)CCCC)N(CCCC)CCCC | 0.224 | 0.784 | 0.0654 |
| O=C(C1CCN(c2nnnn2-c2ccccc2)CC1)N1CCc2ccccc2C1 | 1.3 | > 100 | 1.79 |
| CCCN1CCN(C(=O)C(=O)Nc2ccc3nc4n(c(=O)c3c2)CCCCC4)CC1 | 1.69 | > 100 | 0.165 |
| CN(C)C(=O)CN(C)C(=O)c1cnc2scc(C(C)(C)C)n2c1=O | > 0.82 | > 10 | > 1.25 |
| COc1ccc(C2CC(=O)C3=C(C2)NC(C)=C(C(=O)OC2CCCCC2)C3c2cccc(C)c2)cc1OC (configuration not stated) | 0.837 | > 100 | 0.281 |
| CCc1ccc(NC(=O)c2ccc(F)c(S(=O)(=O)N3CCN(C)CC3)c2)cc1 | > 1.25 | > 10 | > 0.584 |

| Compound | EC50 [1] [µM] | CC50 [2] [µM] | EC50 [3] [µM] |
| --- | --- | --- | --- |
| Cc1cccc(-n2ccnc2SCC(=O)Nc2cc(C(F)(F)F)ccc2Cl)c1 | 0.541 | > 100 | 1.47 |
| C[n+]1ccccc1C=Cc1ccc(Br)cc1 | 0.352 | 95.2 | 0.221 |
| CCCCCC[P+](N(CCC)CCC)(N(CCC)CCC)N(CCC)CCC | 0.0704 | 1.16 | 0.0956 |
| COC(=O)C1=C(C)NC2=C(C(=O)CC(c3ccccc3)C2)C1c1cc(C)sc1SC (configuration not stated) | 0.671 | > 100 | 0.205 |
| COCCSc1nc2sc3c(c2c(=O)n1-c1ccc(OC)cc1)CCN(C)C3 | 3.02 | > 100 | 1.77 |
| O=C1CC(c2nc3ccccc3n2CCCOc2ccccc2)CN1c1ccc(F)cc1 (configuration not stated) | > 0.882 | > 10 | 0.239 |
| COc1ccc(C(=O)N(C)CCCNc2ccnc3cc(Cl)ccc23)cc1 | 0.797 | > 10 | 0.553 |
| O=C(/C=C/c1cccnc1)C12CC3CC(CC(C3)C1)C2 | 0.102 | > 10 | 0.0528 |
| Cn1nc(C(=O)NCc2ccccc2)c2c1CCN(Cc1cccc(O)c1)C2 | > 6.5 | > 100 | 0.935 |
| COC(=O)C1=C(C)Nc2[nH]c(=S)[nH]c(=O)c2C1c1ccccc1F (configuration not stated) | 1.28 | > 10 | > 1.65 |
| c1ccc(CCCNc2ccnc3cc4ccccc4cc23)cc1 | 0.199 | 4.14 | 0.209 |
| CCCNC(=O)CSc1nc(C)c(Cc2ccccc2)c(=O)n1C | 1.28 | > 10 | 1.17 |
| Cc1ccc(C(C(=O)NC(C)(C)C)N(C(=O)c2ccc(-c3ccccc3)[nH]2)c2ccc(C3CCCCC3)cc2)o1 (configuration not stated) | 0.337 | > 10 | 0.765 |
| CCOC(=O)c1cnc2c(OC)cccc2c1Nc1ccc(OC)c(OC)c1 | 0.827 | > 10 | 0.493 |
| Cc1cc(Nc2ccc([N+](=O)[O-])cc2O)nc2ccccc12 | 0.357 | 28.1 | 0.144 |
| CCOC(=O)c1cccc(NC(=O)CCn2c(-c3ccc(F)cc3)cc(C(=O)OCC)c2C)c1 | 0.059 | > 100 | 0.0897 |
| COc1ccc2nc(Nc3nc(-c4ccccn4)cs3)sc2c1 | 0.0918 | 7.31 | 0.0935 |
